# Numbers after ± are expanded uncertainties.
# Conditions: Liquid, Vibrating tube method
compound,measurement,setting,value
CCCCCCC [heptane],mass density,"323.15 K, 40000 kPa",694.1 ± 1.8 kg/m3
same,mass density,"323.15 K, 45000 kPa",697.5 ± 1.8 kg/m3
same,mass density,"323.15 K, 50000 kPa",700.7 ± 1.9 kg/m3
same,mass density,"323.15 K, 55000 kPa",703.7 ± 1.9 kg/m3
same,mass density,"323.15 K, 60000 kPa",706.4 ± 1.9 kg/m3
same,mass density,"328.15 K, 100 kPa",653.9 ± 1.7 kg/m3
same,mass density,"328.15 K, 1000 kPa",654.9 ± 1.7 kg/m3
same,mass density,"328.15 K, 5000 kPa",659.3 ± 1.7 kg/m3
same,mass density,"328.15 K, 10000 kPa",664.5 ± 1.7 kg/m3
same,mass density,"328.15 K, 15000 kPa",669.5 ± 1.7 kg/m3
same,mass density,"328.15 K, 20000 kPa",674.3 ± 1.8 kg/m3
same,mass density,"328.15 K, 25000 kPa",678.8 ± 1.8 kg/m3
same,mass density,"328.15 K, 30000 kPa",683 ± 1.8 kg/m3
same,mass density,"328.15 K, 35000 kPa",687 ± 1.8 kg/m3
same,mass density,"328.15 K, 40000 kPa",690.8 ± 1.8 kg/m3
same,mass density,"328.15 K, 45000 kPa",694.3 ± 1.8 kg/m3
same,mass density,"328.15 K, 50000 kPa",697.6 ± 1.9 kg/m3
same,mass density,"328.15 K, 55000 kPa",700.6 ± 1.9 kg/m3
same,mass density,"328.15 K, 60000 kPa",703.3 ± 1.9 kg/m3
same,mass density,"333.15 K, 100 kPa",649.5 ± 1.7 kg/m3
same,mass density,"333.15 K, 1000 kPa",650.6 ± 1.7 kg/m3
same,mass density,"333.15 K, 5000 kPa",655.1 ± 1.7 kg/m3
same,mass density,"333.15 K, 10000 kPa",660.5 ± 1.7 kg/m3
same,mass density,"333.15 K, 15000 kPa",665.7 ± 1.8 kg/m3
same,mass density,"333.15 K, 20000 kPa",670.6 ± 1.8 kg/m3
same,mass density,"333.15 K, 25000 kPa",675.2 ± 1.8 kg/m3
same,mass density,"333.15 K, 30000 kPa",679.6 ± 1.8 kg/m3
same,mass density,"333.15 K, 35000 kPa",683.7 ± 1.8 kg/m3
same,mass density,"333.15 K, 40000 kPa",687.5 ± 1.8 kg/m3
same,mass density,"333.15 K, 45000 kPa",691.1 ± 1.8 kg/m3
same,mass density,"333.15 K, 50000 kPa",694.4 ± 1.9 kg/m3
same,mass density,"333.15 K, 55000 kPa",697.4 ± 1.9 kg/m3
same,mass density,"333.15 K, 60000 kPa",700.2 ± 1.9 kg/m3
same,mass density,"343.15 K, 100 kPa",640.5 ± 1.7 kg/m3
same,mass density,"343.15 K, 1000 kPa",641.6 ± 1.7 kg/m3
same,mass density,"343.15 K, 5000 kPa",646.5 ± 1.7 kg/m3
same,mass density,"343.15 K, 10000 kPa",652.3 ± 1.7 kg/m3
same,mass density,"343.15 K, 15000 kPa",657.8 ± 1.8 kg/m3
same,mass density,"343.15 K, 20000 kPa",663.1 ± 1.8 kg/m3
same,mass density,"343.15 K, 25000 kPa",668 ± 1.8 kg/m3
same,mass density,"343.15 K, 30000 kPa",672.6 ± 1.8 kg/m3
same,mass density,"343.15 K, 35000 kPa",676.9 ± 1.8 kg/m3
same,mass density,"343.15 K, 40000 kPa",681 ± 1.8 kg/m3
same,mass density,"343.15 K, 45000 kPa",684.7 ± 1.9 kg/m3
same,mass density,"343.15 K, 50000 kPa",688.1 ± 1.9 kg/m3
same,mass density,"343.15 K, 55000 kPa",691.3 ± 1.9 kg/m3
same,mass density,"343.15 K, 60000 kPa",694.1 ± 1.9 kg/m3
same,mass density,"353.15 K, 100 kPa",631.3 ± 1.7 kg/m3
same,mass density,"353.15 K, 1000 kPa",632.5 ± 1.7 kg/m3
same,mass density,"353.15 K, 5000 kPa",637.8 ± 1.7 kg/m3
same,mass density,"353.15 K, 10000 kPa",644 ± 1.7 kg/m3
same,mass density,"353.15 K, 15000 kPa",649.9 ± 1.8 kg/m3
same,mass density,"353.15 K, 20000 kPa",655.5 ± 1.8 kg/m3
same,mass density,"353.15 K, 25000 kPa",660.7 ± 1.8 kg/m3
same,mass density,"353.15 K, 30000 kPa",665.6 ± 1.8 kg/m3
same,mass density,"353.15 K, 35000 kPa",670.2 ± 1.8 kg/m3
same,mass density,"353.15 K, 40000 kPa",674.4 ± 1.8 kg/m3
same,mass density,"353.15 K, 45000 kPa",678.3 ± 1.9 kg/m3
same,mass density,"353.15 K, 50000 kPa",681.9 ± 1.9 kg/m3
same,mass density,"353.15 K, 55000 kPa",685.1 ± 1.9 kg/m3
same,mass density,"353.15 K, 60000 kPa",688 ± 1.9 kg/m3
same,mass density,"363.15 K, 100 kPa",621.9 ± 1.7 kg/m3
same,mass density,"363.15 K, 1000 kPa",623.2 ± 1.7 kg/m3
same,mass density,"363.15 K, 5000 kPa",628.9 ± 1.7 kg/m3
same,mass density,"363.15 K, 10000 kPa",635.6 ± 1.7 kg/m3
same,mass density,"363.15 K, 15000 kPa",641.9 ± 1.8 kg/m3
same,mass density,"363.15 K, 20000 kPa",647.9 ± 1.8 kg/m3
same,mass density,"363.15 K, 25000 kPa",653.4 ± 1.8 kg/m3
same,mass density,"363.15 K, 30000 kPa",658.6 ± 1.8 kg/m3
same,mass density,"363.15 K, 35000 kPa",663.5 ± 1.8 kg/m3
same,mass density,"363.15 K, 40000 kPa",667.9 ± 1.8 kg/m3
same,mass density,"363.15 K, 45000 kPa",672 ± 1.9 kg/m3
same,mass density,"363.15 K, 50000 kPa",675.7 ± 1.9 kg/m3
same,mass density,"363.15 K, 55000 kPa",679 ± 1.9 kg/m3
same,mass density,"363.15 K, 60000 kPa",681.9 ± 1.9 kg/m3
same,mass density,"373.15 K, 1000 kPa",614.2 ± 2.7 kg/m3
same,mass density,"373.15 K, 5000 kPa",620.2 ± 2.7 kg/m3
same,mass density,"373.15 K, 10000 kPa",627.4 ± 2.7 kg/m3
same,mass density,"373.15 K, 15000 kPa",634.1 ± 2.7 kg/m3
same,mass density,"373.15 K, 20000 kPa",640.4 ± 2.7 kg/m3
same,mass density,"373.15 K, 25000 kPa",646.3 ± 2.8 kg/m3
same,mass density,"373.15 K, 30000 kPa",651.8 ± 2.8 kg/m3
same,mass density,"373.15 K, 35000 kPa",656.9 ± 2.8 kg/m3
same,mass density,"373.15 K, 40000 kPa",661.5 ± 2.8 kg/m3
same,mass density,"373.15 K, 45000 kPa",665.8 ± 2.8 kg/m3
same,mass density,"373.15 K, 50000 kPa",669.6 ± 2.8 kg/m3
same,mass density,"373.15 K, 55000 kPa",673.1 ± 2.8 kg/m3
same,mass density,"373.15 K, 60000 kPa",676.1 ± 2.9 kg/m3
same,mass density,"393.15 K, 1000 kPa",594.6 ± 2.7 kg/m3
same,mass density,"393.15 K, 5000 kPa",601.7 ± 2.7 kg/m3
same,mass density,"393.15 K, 10000 kPa",610 ± 2.7 kg/m3
same,mass density,"393.15 K, 15000 kPa",617.8 ± 2.7 kg/m3
same,mass density,"393.15 K, 20000 kPa",625 ± 2.7 kg/m3
same,mass density,"393.15 K, 25000 kPa",631.7 ± 2.8 kg/m3
same,mass density,"393.15 K, 30000 kPa",637.9 ± 2.8 kg/m3
same,mass density,"393.15 K, 35000 kPa",643.6 ± 2.8 kg/m3
same,mass density,"393.15 K, 40000 kPa",648.7 ± 2.8 kg/m3
same,mass density,"393.15 K, 45000 kPa",653.3 ± 2.8 kg/m3
same,mass density,"393.15 K, 50000 kPa",657.4 ± 2.8 kg/m3
same,mass density,"393.15 K, 55000 kPa",660.9 ± 2.8 kg/m3
same,mass density,"393.15 K, 60000 kPa",663.9 ± 2.9 kg/m3
same,mass density,"413.15 K, 1000 kPa",574.1 ± 2.7 kg/m3
same,mass density,"413.15 K, 5000 kPa",582.3 ± 2.7 kg/m3
same,mass density,"413.15 K, 10000 kPa",592 ± 2.7 kg/m3
same,mass density,"413.15 K, 15000 kPa",600.9 ± 2.7 kg/m3
same,mass density,"413.15 K, 20000 kPa",609.2 ± 2.8 kg/m3
same,mass density,"413.15 K, 25000 kPa",616.9 ± 2.8 kg/m3
same,mass density,"413.15 K, 30000 kPa",623.9 ± 2.8 kg/m3
same,mass density,"413.15 K, 35000 kPa",630.2 ± 2.8 kg/m3
same,mass density,"413.15 K, 40000 kPa",635.9 ± 2.8 kg/m3
same,mass density,"413.15 K, 45000 kPa",640.9 ± 2.8 kg/m3
same,mass density,"413.15 K, 50000 kPa",645.2 ± 2.8 kg/m3
same,mass density,"413.15 K, 55000 kPa",648.9 ± 2.9 kg/m3
same,mass density,"413.15 K, 60000 kPa",651.9 ± 2.9 kg/m3

# — the NIST ThermoML archive (doi:10.1016/j.jct.2016.04.014)
